Source: PubChem BioAssay (NCI)
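In this assay, cells in 96-well plates receive the compound at five concentrations for 48 hours. Endpoints are linearly interpolated between the surrounding concentrations. GI50 = concentration required for 50% inhibition of growth. TGI: concentration producing complete growth inhibition.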

Experiments:
Assay in all cases: growth of human tumour cells (NCI), 48 h; in the data active means GI50 below about 0.43 µM; inactive means the rest
NCI/ADR-RES ovarian = tested on: NCI/ADR-RES ovarian
MCF7 breast = tested on: MCF7 breast
NCI-H460 lung = tested on: NCI-H460 lung
HCT-116 colon = tested on: HCT-116 colon
SN12C renal = tested on: SN12C renal
A549 NSCLC = tested on: A549 NSCLC
KM12 colon = tested on: KM12 colon
EKVX NSCLC = tested on: EKVX NSCLC
NCI-H226 lung = tested on: NCI-H226 lung
UO-31 renal = tested on: UO-31 renal
RPMI-8226 leukemia = tested on: RPMI-8226 leukemia
NCI-H522 lung = tested on: NCI-H522 lung
PC-3 prostate = tested on: PC-3 prostate
COLO 205 colon = tested on: COLO 205 colon
T-47D breast = tested on: T-47D breast
OVCAR-5 ovarian = tested on: OVCAR-5 ovarian
ACHN renal = tested on: ACHN renal
HL-60(TB) leukemia = tested on: HL-60(TB) leukemia
HCC-2998 colon = tested on: HCC-2998 colon
M14 melanoma = tested on: M14 melanoma
CAKI-1 renal = tested on: CAKI-1 renal
HOP-92 NSCLC = tested on: HOP-92 NSCLC
SK-MEL-28 melanoma = tested on: SK-MEL-28 melanoma
MDA-N = tested on: MDA-N
DU-145 prostate = tested on: DU-145 prostate
SR leukemia = tested on: SR leukemia
MALME-3M melanoma = tested on: MALME-3M melanoma
TK-10 renal = tested on: TK-10 renal
SNB-75 CNS = tested on: SNB-75 CNS
SW-620 colon = tested on: SW-620 colon
K-562 leukemia = tested on: K-562 leukemia
SNB-19 CNS = tested on: SNB-19 CNS
NCI-H23 lung = tested on: NCI-H23 lung
SK-MEL-2 melanoma = tested on: SK-MEL-2 melanoma
UACC-62 melanoma = tested on: UACC-62 melanoma
HT29 colon = tested on: HT29 colon
OVCAR-3 ovarian = tested on: OVCAR-3 ovarian
CCRF-CEM leukemia = tested on: CCRF-CEM leukemia
U251 CNS = tested on: U251 CNS
SK-OV-3 ovarian = tested on: SK-OV-3 ovarian
SF-268 CNS = tested on: SF-268 CNS
OVCAR-4 ovarian = tested on: OVCAR-4 ovarian
MOLT-4 leukemia = tested on: MOLT-4 leukemia
MDA-MB-435 = tested on: MDA-MB-435
HOP-62 NSCLC = tested on: HOP-62 NSCLC
IGROV1 ovarian = tested on: IGROV1 ovarian
SF-295 CNS = tested on: SF-295 CNS
786-0 renal = tested on: 786-0 renal
LOX IMVI melanoma = tested on: LOX IMVI melanoma
RXF 393 renal = tested on: RXF 393 renal
HCT-15 colon = tested on: HCT-15 colon
OVCAR-8 ovarian = tested on: OVCAR-8 ovarian
BT-549 breast = tested on: BT-549 breast
SK-MEL-5 melanoma = tested on: SK-MEL-5 melanoma
A498 renal = tested on: A498 renal
UACC-257 melanoma = tested on: UACC-257 melanoma
MDA-MB-231 breast = tested on: MDA-MB-231 breast
SF-539 CNS = tested on: SF-539 CNS
HS 578T breast = tested on: HS 578T breast

NNC(=O)COc1nc(-c2cccs2)nc2ccc(I)cc12
75.6 µM: TGI (HOP-62 NSCLC)
21.9 µM: TGI (T-47D breast)
83.9 µM: TGI (NCI-H226 lung)
71.3 µM: TGI (SK-MEL-2 melanoma)
88.7 µM: TGI (MCF7 breast)
56.2 µM: TGI (SK-MEL-28 melanoma)
91.9 µM: TGI (NCI/ADR-RES ovarian)
43.2 µM: TGI (A549 NSCLC)
36.3 µM: TGI (HCT-116 colon)
74.2 µM: TGI (ACHN renal)
63.9 µM: TGI (HCC-2998 colon)
92.2 µM: TGI (SN12C renal)
56.3 µM: TGI (IGROV1 ovarian)
40.7 µM: TGI (OVCAR-3 ovarian)
36.9 µM: TGI (LOX IMVI melanoma)
71 µM: TGI (EKVX NSCLC)
45.1 µM: TGI (MALME-3M melanoma) | TGI (UACC-62 melanoma)
58.3 µM: TGI (M14 melanoma)
70.9 µM: TGI (COLO 205 colon)
44.1 µM: TGI (CAKI-1 renal)
50.7 µM: TGI (DU-145 prostate)
59 µM: TGI (SNB-75 CNS)
77 µM: TGI (OVCAR-4 ovarian)
88.4 µM: TGI (CCRF-CEM leukemia)
70.4 µM: TGI (NCI-H460 lung)
inactive: GI50 (RPMI-8226 leukemia) 16 µM | GI50 (HL-60(TB) leukemia) 37.9 µM | GI50 (K-562 leukemia) 37 µM | GI50 (CCRF-CEM leukemia) 20 µM
61.8 µM: TGI (HOP-92 NSCLC)
78.8 µM: TGI (786-0 renal)
63.5 µM: TGI (UO-31 renal)
41.5 µM: TGI (KM12 colon)
41.2 µM: TGI (NCI-H23 lung)
45 µM: TGI (SK-MEL-5 melanoma)
> 100 µM: TGI (PC-3 prostate) | TGI (OVCAR-5 ovarian) | TGI (HL-60(TB) leukemia) | TGI (MDA-N) | TGI (SW-620 colon) | TGI (K-562 leukemia) | TGI (HT29 colon) | TGI (MOLT-4 leukemia) | TGI (RXF 393 renal) | TGI (OVCAR-8 ovarian)
39.4 µM: TGI (RPMI-8226 leukemia)
61 µM: TGI (SK-OV-3 ovarian)
39.2 µM: TGI (SNB-19 CNS)
38.9 µM: TGI (BT-549 breast)
47 µM: TGI (MDA-MB-435)
70.5 µM: TGI (SF-268 CNS)
55.8 µM: TGI (U251 CNS)
55.6 µM: TGI (SR leukemia)
56 µM: TGI (HCT-15 colon)
86.2 µM: TGI (SF-295 CNS)
44.8 µM: TGI (TK-10 renal)
45.8 µM: TGI (NCI-H522 lung)

CCc1nc2cc(F)ccc2[nH]c1=O
> 100 µM: TGI (A498 renal) | TGI (NCI/ADR-RES ovarian) | TGI (MCF7 breast) | TGI (NCI-H460 lung) | TGI (HCT-116 colon) | TGI (SN12C renal) | TGI (A549 NSCLC) | TGI (KM12 colon) | TGI (EKVX NSCLC) | TGI (NCI-H226 lung) | TGI (UO-31 renal) | TGI (RPMI-8226 leukemia) | TGI (PC-3 prostate) | TGI (UACC-257 melanoma) | TGI (MDA-MB-231 breast) | TGI (COLO 205 colon) | TGI (OVCAR-5 ovarian) | TGI (ACHN renal) | TGI (HL-60(TB) leukemia) | TGI (HCC-2998 colon) | TGI (M14 melanoma) | TGI (CAKI-1 renal) | TGI (HOP-92 NSCLC) | TGI (SK-MEL-28 melanoma) | TGI (MDA-N) | TGI (DU-145 prostate) | TGI (MALME-3M melanoma) | TGI (TK-10 renal) | TGI (SF-539 CNS) | TGI (SNB-75 CNS) | TGI (SW-620 colon) | TGI (K-562 leukemia) | TGI (SNB-19 CNS) | TGI (NCI-H23 lung) | TGI (HS 578T breast) | TGI (SK-MEL-2 melanoma) | TGI (UACC-62 melanoma) | TGI (HT29 colon) | TGI (OVCAR-3 ovarian) | TGI (CCRF-CEM leukemia) | TGI (U251 CNS) | TGI (SK-OV-3 ovarian) | TGI (SF-268 CNS) | TGI (OVCAR-4 ovarian) | TGI (MOLT-4 leukemia) | TGI (MDA-MB-435) | TGI (HOP-62 NSCLC) | TGI (SF-295 CNS) | TGI (786-0 renal) | TGI (LOX IMVI melanoma) | TGI (RXF 393 renal) | TGI (HCT-15 colon) | TGI (OVCAR-8 ovarian) | TGI (BT-549 breast) | TGI (SK-MEL-5 melanoma)

C=CCCC1(CCP(=O)(c2ccccc2)c2ccccc2)OCCO1
> 100 µM: TGI (NCI/ADR-RES ovarian) | TGI (MCF7 breast) | TGI (NCI-H460 lung) | TGI (HCT-116 colon) | TGI (SN12C renal) | TGI (A549 NSCLC) | TGI (KM12 colon) | TGI (EKVX NSCLC) | TGI (UO-31 renal) | TGI (RPMI-8226 leukemia) | TGI (NCI-H522 lung) | TGI (PC-3 prostate) | TGI (UACC-257 melanoma) | TGI (MDA-MB-231 breast) | TGI (COLO 205 colon) | TGI (OVCAR-5 ovarian) | TGI (ACHN renal) | TGI (HL-60(TB) leukemia) | TGI (HCC-2998 colon) | TGI (M14 melanoma) | TGI (SK-MEL-28 melanoma) | TGI (MDA-N) | TGI (DU-145 prostate) | TGI (SR leukemia) | TGI (MALME-3M melanoma) | TGI (TK-10 renal) | TGI (SF-539 CNS) | TGI (SNB-75 CNS) | TGI (SW-620 colon) | TGI (K-562 leukemia) | TGI (SNB-19 CNS) | TGI (NCI-H23 lung) | TGI (HS 578T breast) | TGI (SK-MEL-2 melanoma) | TGI (UACC-62 melanoma) | TGI (HT29 colon) | TGI (OVCAR-3 ovarian) | TGI (CCRF-CEM leukemia) | TGI (U251 CNS) | TGI (SF-268 CNS) | TGI (MOLT-4 leukemia) | TGI (MDA-MB-435) | TGI (HOP-62 NSCLC) | TGI (IGROV1 ovarian) | TGI (SF-295 CNS) | TGI (786-0 renal) | TGI (LOX IMVI melanoma) | TGI (RXF 393 renal) | TGI (HCT-15 colon) | TGI (OVCAR-8 ovarian) | TGI (BT-549 breast) | TGI (SK-MEL-5 melanoma)
